# Assay results taken from patent publication US20130059879A1, “Small Molecule Inhibitors of PFKFB3 and Glycolytic Flux and Their Methods of Use as Anti-Cancer Therapeutics” (UNIVERSITY OF LOUISVILLE RESEARCH FOUNDATION, INC., priority 2010, published 2013).
# Read-outs that look alike come from different tables or passages of the source.
# What was measured:
# Jurkat = test: Cancer cell proliferation, Alamar Blue assay, 72 hours; assay type: cell-based; settings: Homo sapiens, Jurkat
# Protocol: (§1) The ability of the compounds described herein to kill or inhibit the proliferation of cancer cells was measured using either the MTT assay, or the Alamar Blue assay, or the Cell Titer Glow® assay using 48 or 72 hours exposure. […] The procedures are briefly described below. Cells of the desired tumor cell line were plated at 2×10^5 cells/ml in 96 well plates. Twice the indicated concentrations of the compounds of the invention were added to cells the following day in an equal volume of media. 72 hours later, cells were lysed and subjected to ATP determination using the CellTiter Glo-Luminescent Cell Viability Assay kit (Promega, Madison, Wis.). Experiments were done in triplicate. When using the MTT assay or the Alamar blue assay, the experimental conditions are essentially similar; at the end of the incubation period, 20 microliters of the MTT solution is added per well and the samples are incubated for an additional four hours, rinsed, and the absorbance at 570 nm measured. […] Table 2 lists the IC50 values for the compounds of the invention in several cell lines including Jurkat, Calu-6, NCI-H82, U937, HCT-116, and MDA-MB-231 cancer cell lines.
# U937 = test: as above; assay type: cell-based; settings: Homo sapiens, U-937
# Protocol: as §1
# NCI-H82 = test: as above; assay type: cell-based; settings: Homo sapiens, NCI-H82, read-out: IC50 NCl-H82
# Protocol: as §1
# HCT-116 = test: as above; assay type: cell-based; settings: Homo sapiens, HCT-116
# Protocol: as §1
# Calu-6 = test: as above; assay type: cell-based; settings: Homo sapiens, Calu-6
# Protocol: as §1
# [1] = Solubility in solvents and excipients, 1 hour at room temperature, HPLC; assay type: physicochemical; settings: thermodynamic from solid
# Protocol: Chemical properties of the compounds of the invention were investigated, including the solubility in several solvents and pharmaceutically accepted excipients. […] Briefly, selected compounds of the invention are dissolved in a small volume of the solvents/excipients of interest at room temperature over 1 hour in typically 1 ml and the concentration is measured by HPLC after filtration.
# [2] = Microsomal stability in human liver microsomes; assay type: in vitro ADME
# Protocol: Microsomal stability in vitro in different biologic media (liver microsomes, S9 fraction, hepatocytes) and species is ascertained to evaluate the rate at which a compound undergoes metabolism in the experimental in vitro conditions. Results for some compounds of the invention after a 60 minutes incubation period in human liver microsomes are shown in the Table 6 below. […] Experimental conditions are briefly described here: the stability in human liver microsomes of several compounds was done over […] at 37° C. using pooled mixed gender human liver microsomes. These liver microsomes were prepared at 1.0 mg/ml of microsomal protein in a 100 mM potassium phosphate pH 7.4 buffer with 1 mM NADPH. The media was incubated at 37° C. with the compound in solution in DMSO. The concentration of the compound was followed by LC/MS-MS as a function of time. Samples were assayed at t=0, 15, 30, and 60 minutes. Testosterone was used as a positive control. The same experiment was performed with mouse, rat or dog liver microsomes instead of human liver microsomes.
# PFKFB3 = molecular target: T1, PFKFB3 (Homo sapiens, UniProt Q16875); test: Inhibition of recombinant PFKFB3 kinase activity (ADP Glow assay); assay type: biochemical; settings: 250 nM analog concentration; read-out: % Inhibition of PFKFB3 Enzymatic Activity
# T1 construct: GST
# Protocol: PFKFB3 was prepared by expression in E. coli and purified by GST column and column chromatography. […] The recombinant protein was pure and active as determined by the results of a kinase activity assay commercially available (such as ADP Glow® assay, […]). The same assay was used to determine the inhibition of the protein and the results are shown in Table 5 below (IC50 values or percent inhibition at a fixed concentration). Results confirmed that the compounds of the invention have low nanomolar IC50 values, interacting with PFKFB3 and inhibiting its enzymatic activity.
# Jurkat cells = test: Inhibition of 14C-2-deoxyglucose uptake; assay type: cell-based; settings: Homo sapiens, 3 hours
# Protocol: Inhibition of PFKFB3 results in inhibiting glycolysis. Several feedback or feedforward activation and inhibition mechanisms exist so that, by a feedback mechanism, inhibiting the activity of PFKFB3 may inhibit glucose uptake by cells. An assay was developed to determine if there was inhibition of glucose uptake following exposure to the compounds on the invention. Briefly, Jurkat cells were plated at 1×10^5/mL in RPM′ 1640 supplemented with 10% fetal bovine serum and 50 μg/mL gentamicin sulfate. Cells were immediately treated with vehicle or 5 μmol/L of the compound of the invention for 3 hours and subsequently placed in glucose-free RPMI 1640 for 30 min. ^14C-2-deoxyglucose (0.25 μCi/mL; Perkin Elmer) was added for an additional 60 min and cells were then washed three with ice-cold RPMI 1640 containing no glucose. Cell lysates were collected in 500 μL of 0.1% SDS, and scintillation counts (counts/min) were measured on 400 μL of lysate. Counts were normalized to protein concentration.
# MDA-MB-231 = test: Cancer cell proliferation, Alamar Blue assay, 72 hours; assay type: cell-based; settings: Homo sapiens
# Protocol: as §1
# [3] = aqueous with cosolvent or surfactant or cyclodextrin, Cre:EtOH:Saline 5:5:90 mixture, 1 hour at room temperature, read-out: Solubility Cre:EtOH:Saline
# [4] = ethanol, organic solvent or mixture, EtOH, 1 hour at room temperature, read-out: Solubility EtOH
# [5] = organic solvent or mixture, 1:1 cremophor EL-P:ethanol mixture, 1 hour at room temperature, read-out: Solubility Cre:EtOH
# [6] = organic solvent or mixture, Acetone, 1 hour at room temperature, read-out: Solubility Acetone
# [7] = organic solvent or mixture, Cremophor, 1 hour at room temperature, read-out: Solubility Cremophor
# [8] = organic solvent or mixture, DCM, 1 hour at room temperature, read-out: Solubility DCM
# [9] = organic solvent or mixture, Tween 80, 1 hour at room temperature, read-out: Solubility Tween 80
# [10] = organic solvent or mixture, Tween80:EtOH 6:4 mixture, 1 hour at room temperature, read-out: Solubility Twee80:EtOH
# [11] = 60 min incubation, 1.0 mg/ml microsomal protein, 1 mM NADPH, 37° C.
# T1 sequence (Q16875 whole entry, species assumed): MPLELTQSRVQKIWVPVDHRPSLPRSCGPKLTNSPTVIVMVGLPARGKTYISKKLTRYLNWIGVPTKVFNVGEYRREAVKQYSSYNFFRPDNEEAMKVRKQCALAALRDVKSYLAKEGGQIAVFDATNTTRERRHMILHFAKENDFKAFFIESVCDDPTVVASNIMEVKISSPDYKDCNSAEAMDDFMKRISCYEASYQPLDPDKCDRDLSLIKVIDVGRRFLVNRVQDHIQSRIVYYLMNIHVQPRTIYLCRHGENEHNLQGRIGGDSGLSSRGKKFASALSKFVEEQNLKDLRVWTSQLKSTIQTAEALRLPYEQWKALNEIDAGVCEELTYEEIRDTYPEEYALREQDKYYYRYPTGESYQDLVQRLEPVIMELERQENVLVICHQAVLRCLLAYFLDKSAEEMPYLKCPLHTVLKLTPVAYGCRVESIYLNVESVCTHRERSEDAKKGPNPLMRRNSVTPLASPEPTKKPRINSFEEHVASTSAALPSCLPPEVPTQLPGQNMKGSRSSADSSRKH
smiles,measurement,setting,value
"COc1cccc(C(=O)c2cc3c(ccc4ccccc43)[nH]2)c1 [ACT-PFK-096, (3H-Benzo[e]indol-2-yl)-(3-methoxy-phenyl)-methanone]",IC50,Jurkat,1500 nM
same,IC50,U937,14 nM
same,IC50,NCI-H82,155 nM
same,IC50,HCT-116,695 nM
same,IC50,Calu-6,20 nM
same,solubility at 1 h,[1]; [3],1700 µg/mL
same,solubility at 1 h,[1]; [4],2800 µg/mL
same,solubility at 1 h,[1]; [5],29700 µg/mL
same,solubility at 1 h,[1]; [6],25800 µg/mL
same,solubility at 1 h,[1]; [7],1200 µg/mL
same,solubility at 1 h,[1]; [8],8900 µg/mL
same,solubility at 1 h,[1]; [9],1800 µg/mL
same,solubility at 1 h,[1]; [10],18700 µg/mL
same,"HLM, Mean metabolized (%)",[2]; 0 min,0.0%
same,"HLM, Mean metabolized (%)",[2]; [11],99%
same,inhibition at 0.25 µM,PFKFB3,0%
same,inhibition at 5 µM,Jurkat cells,29%
"COc1ccccc1C(=O)c1cc2c(ccc3ccccc32)[nH]1 [ACT-PFK-098, (3H-Benzo[e]indol-2-yl)-(2-methoxy-phenyl)-methanone]",IC50,Jurkat,405 nM
same,IC50,U937,40 nM
same,IC50,NCI-H82,210 nM
same,IC50,HCT-116,490 nM
same,IC50,Calu-6,220 nM
same,solubility at 1 h,[1]; [3],2400 µg/mL
same,solubility at 1 h,[1]; [4],4600 µg/mL
same,solubility at 1 h,[1]; [5],29000 µg/mL
same,solubility at 1 h,[1]; [6],9300 µg/mL
same,solubility at 1 h,[1]; [7],30200 µg/mL
same,solubility at 1 h,[1]; [8],10400 µg/mL
same,solubility at 1 h,[1]; [9],37000 µg/mL
same,solubility at 1 h,[1]; [10],32800 µg/mL
same,inhibition at 5 µM,Jurkat cells,25%
"COc1cc(C(=O)c2cc3c(ccc4ccccc43)[nH]2)ccc1O [ACT-PFK-108, (3H-Benzo[e]indol-2-yl)-(4-hydroxy-3-methoxylthenyl)-methanone]",IC50,Jurkat,545 nM
same,IC50,U937,205 nM
same,IC50,NCI-H82,360 nM
same,IC50,HCT-116,475 nM
same,IC50,Calu-6,360 nM
same,IC50,MDA-MB-231,90 nM
same,solubility at 1 h,[1]; [3],4800 µg/mL
same,solubility at 1 h,[1]; [4],9900 µg/mL
same,solubility at 1 h,[1]; [5],78100 µg/mL
same,solubility at 1 h,[1]; [6],12800 µg/mL
same,solubility at 1 h,[1]; [7],37600 µg/mL
same,solubility at 1 h,[1]; [8],11100 µg/mL
same,solubility at 1 h,[1]; [9],16900 µg/mL
same,solubility at 1 h,[1]; [10],10300 µg/mL
same,"HLM, Mean metabolized (%)",[2]; 0 min,0.0%
same,"HLM, Mean metabolized (%)",[2]; [11],73.3%
same,inhibition at 5 µM,Jurkat cells,2%
"COc1cc(C(=O)c2cc3c(ccc4ccccc43)[nH]2)ccc1OCc1ccccc1 [ACT-PFK-109, (3H-Benzo[e]indol-2-yl)-(4-benzyloxy-3-methoxy-phenyl)-methanone]",IC50,Jurkat,> 100000 nM
same,IC50,U937,> 100000 nM
same,IC50,NCI-H82,> 100000 nM
same,IC50,HCT-116,> 100000 nM
same,IC50,Calu-6,64500 nM
same,IC50,MDA-MB-231,> 100000 nM
same,inhibition at 5 µM,Jurkat cells,42%
"COc1cccc(C(=O)c2cc3c(cc(F)c4ccccc43)[nH]2)c1 [ACT-PFK-116, (5-Fluoro-3H-benzo[e]indol-2-yl)-(3-methoxy-phenyl)-methanone]",IC50,Jurkat,125 nM
same,IC50,U937,30 nM
same,IC50,NCI-H82,205 nM
same,IC50,HCT-116,235 nM
same,IC50,Calu-6,80 nM
same,IC50,MDA-MB-231,563 nM
same,solubility at 1 h,[1]; [3],700 µg/mL
same,solubility at 1 h,[1]; [4],1300 µg/mL
same,solubility at 1 h,[1]; [5],8600 µg/mL
same,solubility at 1 h,[1]; [6],6200 µg/mL
same,solubility at 1 h,[1]; [7],14400 µg/mL
same,solubility at 1 h,[1]; [8],6000 µg/mL
same,solubility at 1 h,[1]; [9],15500 µg/mL
same,solubility at 1 h,[1]; [10],10200 µg/mL
same,"HLM, Mean metabolized (%)",[2]; 0 min,0.0%
same,"HLM, Mean metabolized (%)",[2]; [11],45.8%
same,inhibition at 0.25 µM,PFKFB3,34.2%
same,inhibition at 5 µM,Jurkat cells,0%
"O=C(c1ccncc1)c1cc2c(cc(F)c3ccccc32)[nH]1 [ACT-PFK-118, (5-Fluoro-3H-benzo[e]indol-2-yl)-pyridin-4-yl-methanone]",IC50,Jurkat,240 nM
same,IC50,U937,95 nM
same,IC50,NCI-H82,385 nM
same,IC50,HCT-116,1700 nM
same,IC50,Calu-6,420 nM
same,IC50,MDA-MB-231,673 nM
same,solubility at 1 h,[1]; [3],100 µg/mL
same,solubility at 1 h,[1]; [4],200 µg/mL
same,solubility at 1 h,[1]; [5],1000 µg/mL
same,solubility at 1 h,[1]; [6],600 µg/mL
same,solubility at 1 h,[1]; [7],2200 µg/mL
same,solubility at 1 h,[1]; [8],300 µg/mL
same,solubility at 1 h,[1]; [9],1600 µg/mL
same,solubility at 1 h,[1]; [10],1300 µg/mL
same,"HLM, Mean metabolized (%)",[2]; 0 min,0.0%
same,"HLM, Mean metabolized (%)",[2]; [11],22.2%
same,inhibition at 0.25 µM,PFKFB3,0%
"COc1cc(C(=O)c2cc3c(cc(F)c4ccccc43)[nH]2)ccc1O [ACT-PFK-119, (5-Fluoro-3H-benzo[e]indol-2-yl)-(4-hydroxy-3-methoxy-phenyl)-methanone]",IC50,Jurkat,110 nM
same,IC50,U937,70 nM
same,IC50,NCI-H82,315 nM
same,IC50,HCT-116,365 nM
same,IC50,Calu-6,70 nM
same,IC50,MDA-MB-231,620 nM
same,solubility at 1 h,[1]; [3],300 µg/mL
same,solubility at 1 h,[1]; [4],1000 µg/mL
same,solubility at 1 h,[1]; [5],6100 µg/mL
same,solubility at 1 h,[1]; [6],5500 µg/mL
same,solubility at 1 h,[1]; [7],14400 µg/mL
same,solubility at 1 h,[1]; [8],700 µg/mL
same,solubility at 1 h,[1]; [9],11400 µg/mL
same,solubility at 1 h,[1]; [10],8600 µg/mL
same,"HLM, Mean metabolized (%)",[2]; 0 min,0.0%
same,"HLM, Mean metabolized (%)",[2]; [11],79.2%
same,inhibition at 0.25 µM,PFKFB3,3.7%
